The text below walks through data of ChEMBL document CHEMBL2074566, “Azithromycin reverses anticancer drug resistance and modifies hepatobiliary excretion of doxorubicin in rats” (Eur J Pharmacol, 2004).

The target of this data set is ATP-dependent translocase ABCB1 (Homo sapiens, UniProt P08183). Put plainly: TP_TRANSPORTER: cell accumulation of doxorubicin in the presence of Azithromycin at a concentration of 0.3uM and 1mM in K562/ADR cells. It counts as functional, cell-based.

Structures are written as SMILES.

Chain of ATP-dependent translocase ABCB1 (P08183 whole entry): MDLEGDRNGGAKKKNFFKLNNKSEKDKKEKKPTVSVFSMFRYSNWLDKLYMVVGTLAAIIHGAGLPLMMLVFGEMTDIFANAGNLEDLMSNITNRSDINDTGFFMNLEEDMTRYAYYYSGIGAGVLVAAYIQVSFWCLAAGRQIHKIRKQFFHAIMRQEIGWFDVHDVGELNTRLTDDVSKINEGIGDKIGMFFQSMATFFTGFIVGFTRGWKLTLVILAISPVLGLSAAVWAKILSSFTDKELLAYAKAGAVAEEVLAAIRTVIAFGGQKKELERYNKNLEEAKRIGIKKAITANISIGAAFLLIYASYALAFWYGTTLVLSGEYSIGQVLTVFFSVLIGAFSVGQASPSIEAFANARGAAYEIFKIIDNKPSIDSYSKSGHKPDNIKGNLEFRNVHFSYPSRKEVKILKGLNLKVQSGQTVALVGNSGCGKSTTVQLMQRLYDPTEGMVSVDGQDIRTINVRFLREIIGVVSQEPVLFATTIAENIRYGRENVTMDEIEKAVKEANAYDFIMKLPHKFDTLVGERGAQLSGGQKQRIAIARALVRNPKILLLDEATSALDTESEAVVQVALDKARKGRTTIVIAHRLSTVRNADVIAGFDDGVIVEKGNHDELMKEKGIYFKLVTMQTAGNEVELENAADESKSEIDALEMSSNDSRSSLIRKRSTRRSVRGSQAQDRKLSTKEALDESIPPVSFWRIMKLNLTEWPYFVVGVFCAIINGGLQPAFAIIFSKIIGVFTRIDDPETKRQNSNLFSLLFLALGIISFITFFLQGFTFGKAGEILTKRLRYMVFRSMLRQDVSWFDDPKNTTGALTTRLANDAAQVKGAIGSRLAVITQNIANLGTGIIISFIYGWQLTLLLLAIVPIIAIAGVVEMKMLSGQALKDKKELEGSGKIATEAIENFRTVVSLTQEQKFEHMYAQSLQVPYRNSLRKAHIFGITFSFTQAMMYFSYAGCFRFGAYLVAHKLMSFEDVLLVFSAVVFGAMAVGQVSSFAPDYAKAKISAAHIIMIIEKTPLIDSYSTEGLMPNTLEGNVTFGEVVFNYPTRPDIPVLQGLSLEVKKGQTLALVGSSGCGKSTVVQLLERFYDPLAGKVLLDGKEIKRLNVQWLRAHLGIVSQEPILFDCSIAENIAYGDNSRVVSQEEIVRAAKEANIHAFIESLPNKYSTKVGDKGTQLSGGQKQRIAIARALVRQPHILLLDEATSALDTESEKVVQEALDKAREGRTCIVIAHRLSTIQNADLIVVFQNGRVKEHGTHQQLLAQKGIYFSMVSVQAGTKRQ

On to `CC[C@H]1OC(=O)[C@H](C)[C@@H](O[C@H]2C[C@@](C)(OC)[C@@H](O)[C@H](C)O2)[C@H](C)[C@@H](O[C@@H]2O[C@H](C)C[C@H](N(C)C)[C@H]2O)[C@](C)(O)C[C@@H](C)CN(C)[C@H](C)[C@@H](O)[C@]1(C)O` [AZITHROMYCIN], for which the Activity result is “inhibitor [+]”.
